Results taken from publication PMC6156508, “GA-Hecate antiviral properties on HCV whole cycle represent a new antiviral class and open the door for the development of broad spectrum antivirals” (Scientific Reports, 2018).
Where a SMILES comes first, the peptide text is derived from it. The star is where a group is joined. Galloyl = O=C(c1cc(O)c(O)c(O)c1)*

Tested on: HCVcc particles released from treated cells, naïve Huh-7.5 cells
Assay: Infectivity assay of released particles (focus forming units)
Type: cell-based, hepatitis C virus
Experimental: Figure 6 GA-Hecate effect on HCV Release and infectivity. (A) HCV-infected Huh-7.5 cells were treated for 24 h with GA-Hecate. RNA was isolated and summited to qPCR for HCV 5′ UTR. Intracellular HCV expression was normalized by GAPDH, and extracellular HCV expression was calculated by absolute quantification. The difference between the intra and extracellular RNA expression represents the HCV release. Bars represent triplicate samples of three independent assays. Naringenin (200 μM) was used as a positive control of HCV release inhibition and water was a negative control of HCV release inhibition. ^aP < 0.001 vs Control (−), intracellular. ^bP < 0.001 vs Control (−), extracellular. F = 22.58, df (row factor) = 4. (B) Infectivity. HCV-infected Huh-7.5 cells were treated for 24 h with GA-Hecate, and then the supernatant was collected and used to infect naïve Huh-7.5 cells. The capacity of HCVcc particles to generate a new infection after GA-Hecate treatment is represented by the bars. […]
To assess the effect of GA-Hecate on HCV virion infectivity, a similar process to release/assembly was done and the supernatant (extracellular content) was collected and used to infect naïve Huh-7.5 cells. HCV infectivity was evaluated by the focus forming units assay, following an indirect immunofluorescence (IFI) assay for HCV NS5A as previously described by Batista et al.[35].

Compound: CC(C)C[C@H](NC(=O)[C@H](C)NC(=O)[C@H](CCCCN)NC(=O)[C@H](CCCCN)NC(=O)[C@H](CC(C)C)NC(=O)[C@H](C)NC(=O)[C@H](CCCCN)NC(=O)[C@H](CCCCN)NC(=O)[C@H](CC(C)C)NC(=O)[C@H](CCCCN)NC(=O)[C@H](CCCCN)NC(=O)[C@H](CC(C)C)NC(=O)[C@H](C)NC(=O)[C@H](CCCCN)NC(=O)[C@H](CCCCN)NC(=O)[C@H](CC(C)C)NC(=O)[C@H](C)NC(=O)[C@H](CCCCN)NC(=O)[C@H](CC(C)C)NC(=O)[C@H](C)NC(=O)[C@H](CC(C)C)NC(=O)[C@H](C)NC(=O)[C@H](Cc1ccccc1)NC(=O)c1cc(O)c(O)c(O)c1)C(N)=O [GA-Hecate] (Galloyl-FALALKALKKALKKLKKALKKAL-NH2)
- infection inhibition by released particles (infectivity) (20 μM, supernatant of cells treated 24 h on naïve Huh-7.5): approximately 100%
- share of released HCV able to generate a new infection (supernatant of GA-Hecate-treated cells): less than 1%
